Measurements published in ChEMBL document CHEMBL2331244, “Selective 3-phosphoinositide-dependent kinase 1 (PDK1) inhibitors: dissecting the function and pharmacology of PDK1” (J Med Chem, 2013).

Columns and labels:
[1] = target: T1, 3-phosphoinositide-dependent protein kinase 1 (Homo sapiens) (UniProt O15530); assay: Agonist activity at human N-terminal His6-tagged PDK1 amino acid residues 51 to 359 expressed in insect sf21 cells using T308tide as substrate at 313 uM incubated for 60 mins prior to substrate addition measured after 60 mins by ATP depletion assay
T1 sequence (whole entry): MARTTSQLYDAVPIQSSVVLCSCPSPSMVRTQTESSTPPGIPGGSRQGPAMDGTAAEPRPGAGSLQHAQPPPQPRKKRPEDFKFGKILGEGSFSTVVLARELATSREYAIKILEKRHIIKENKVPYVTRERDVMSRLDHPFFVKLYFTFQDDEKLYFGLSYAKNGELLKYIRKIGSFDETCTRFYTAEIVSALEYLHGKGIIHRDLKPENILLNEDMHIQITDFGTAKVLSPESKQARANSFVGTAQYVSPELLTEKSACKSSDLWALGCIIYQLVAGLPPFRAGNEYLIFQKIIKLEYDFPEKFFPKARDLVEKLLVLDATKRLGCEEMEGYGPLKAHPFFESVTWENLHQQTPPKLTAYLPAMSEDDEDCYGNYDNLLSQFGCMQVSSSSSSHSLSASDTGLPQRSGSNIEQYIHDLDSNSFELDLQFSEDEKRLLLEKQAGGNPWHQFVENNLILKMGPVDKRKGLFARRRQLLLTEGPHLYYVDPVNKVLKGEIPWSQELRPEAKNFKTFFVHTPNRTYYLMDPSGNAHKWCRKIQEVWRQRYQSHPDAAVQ

[2] = target: T2, 3-phosphoinositide-dependent protein kinase 1 (Homo sapiens, UniProt O15530); assay: Inhibition of recombinant PDK1 (unknown origin) using RPRAATF peptide as substrate assessed as substrate phosphorylation by scintillation counting analysis in presence of [gamma-32P]ATP
T2 sequence (O15530 whole entry): T1 sequence (whole entry)

[3] = target: T1, 3-phosphoinositide-dependent protein kinase 1 (Homo sapiens); assay: Agonist activity at PDK1 (unknown origin) using T308tide as substrate assessed as concentration required to elicit 50% response in presence of [gamma-32P]ATP
HCT-116 = assay: Antiproliferative activity against human HCT116 cells harboring PI3KCA/KRAS double mutant after 72 hrs by ATP ViaLight assay; format: functional, cell-based; details: HCT-116, 72 h
LNCaP = assay: Antiproliferative activity against PTEN-deficient human LNCAP cells after 72 hrs by ATP ViaLight assay; format: functional, cell-based
[4] = Antiproliferative activity against PTEN-deficient human […] cells after 72 hrs by ATP ViaLight assay; format: functional, cell-based
MDA-MB-453 = assay: Antiproliferative activity against human MDA-MB-453 cells harboring PI3KCA mutant after 72 hrs by ATP ViaLight assay; format: functional, cell-based; details: MDA-MB-453, 72 h
PC-3 = assay: Antiproliferative activity against PTEN-deficient human PC3 cells after 72 hrs by ATP ViaLight assay; format: functional, cell-based; details: PC-3, 72 h
NCI-H1437 = assay: Antiproliferative activity against human NCI-H1437 cells after 72 hrs by ATP ViaLight assay; format: functional, cell-based; details: NCI-H1437, 72 h
MCF7 = assay: Antiproliferative activity against human MCF7 cells harboring PI3KCA mutant after 72 hrs by ATP ViaLight assay; format: functional, cell-based; details: MCF7, 72 h
T47D = assay: Antiproliferative activity against human T47D cells harboring PI3KCA mutant after 72 hrs by ATP ViaLight assay; format: functional, cell-based
UMC-11 = assay: Antiproliferative activity against human UMC11 cells after 72 hrs by ATP ViaLight assay; format: functional, cell-based; details: UMC-11, 72 h
LS-513 = assay: Antiproliferative activity against human LS513 cells harboring KRAS mutant after 72 hrs by ATP ViaLight assay; format: functional, cell-based; details: LS-513, 72 h
[5] = Antiproliferative activity against PTEN-deficient human U87 cells after 72 hrs by ATP ViaLight assay; format: functional, cell-based, U-87MG ATCC; details: U-87 MG
BT-474 = assay: Antiproliferative activity against human BT474 cells harboring PI3KCA mutant after 72 hrs by ATP ViaLight assay; format: functional, cell-based; details: BT-474, 72 h
A-427 = assay: Antiproliferative activity against human A427 cells harboring KRAS mutant after 72 hrs by ATP ViaLight assay; format: functional, cell-based; details: A-427, 72 h
NCI-H446 = assay: Antiproliferative activity against PTEN-deficient human NCI-H446 cells after 72 hrs by ATP ViaLight assay; format: functional, cell-based; details: NCI-H446, 72 h
[6] = Antiproliferative activity against human NCI-H1915 cells harboring KRAS mutant after 72 hrs by ATP ViaLight assay; format: functional, cell-based; details: NCI-H1915, 72 h
MDA-MB-231 = assay: Antiproliferative activity against human MDA-MB-231 cells harboring KRAS mutant after 72 hrs by ATP ViaLight assay; format: functional, cell-based; details: MDA-MB-231, 72 h
A549 = assay: Antiproliferative activity against human A549 cells harboring KRAS mutant after 72 hrs by ATP ViaLight assay; format: functional, cell-based; details: A549, 72 h
[7] = target: Serine/threonine-protein kinase mTOR (Homo sapiens, UniProt P42345); assay: Inhibition of MTOR (unknown origin)
[8] = target: T2, 3-phosphoinositide-dependent protein kinase 1; assay: Inhibition of PDK1 (unknown origin)

COc1ccc(CC(C(=O)O)c2ccccc2)cc1 (configuration not stated)
Activity [1]: 33%

NC(N)=Nc1ccc(-n2nc(C(F)(F)F)cc2-c2ccc3c(ccc4ccccc43)c2)cc1
IC50 [2]: 2 µM

O=C(O)CSC(CC(=O)c1ccc(Cl)cc1)c1ccccc1 (configuration not stated)
Activity [3]: 34 µM

O=C(N[C@@H](COc1ccc2[nH]c(=O)[nH]c2c1)c1ccccc1)c1cccn(Cc2ccc(F)c(F)c2)c1=O
EC50 (HCT-116): > 9 µM
EC50 (LNCaP): > 9 µM
EC50 [4]: > 9 µM
EC50 (MDA-MB-453): > 9 µM
EC50 (PC-3): > 9 µM
EC50 (NCI-H1437): > 9 µM
EC50 (MCF7): > 9 µM
EC50 (T47D): > 9 µM
EC50 (UMC-11): > 9 µM
EC50 (LS-513): > 9 µM
EC50 [5]: > 9 µM
EC50 (BT-474): > 9 µM
EC50 (A-427): > 9 µM
EC50 (NCI-H446): > 9 µM
EC50 [6]: > 9 µM
EC50 (MDA-MB-231): > 9 µM
EC50 (A549): > 9 µM

O=P(O)(O)O[C@@H]1[C@@H](OP(=O)(O)O)[C@@H](OP(=O)(O)O)[C@@H](OCc2ccccc2)[C@H](OP(=O)(O)O)[C@H]1OP(=O)(O)O
IC50 [7]: 1.3 µM
IC50 [8]: 0.0265 µM
